Laboratory results as given in patent US20090226500A1, “SUTURES AND ANTI-SCARRING AGENTS” (Angiotech Pharmaceuticals, Inc, priority 2006, published 2009).

Tests used:
[1] = tested on: TNFα production by THP-1 cells; test: TNF-alpha production by macrophages; type: cell-based, human; details: Homo sapiens; THP-1 cells stimulated with opsonized zymosan, 24 hours; read-out: IC50 TNFα production
In short: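 THP-1 cells (1×10^6 per well, 10% FCS) were stimulated with 1 mg/ml serum-opsonized zymosan and incubated with drug in triplicate for 24 h at 37 °C. TNFα in the supernatants was quantified by sandwich ELISA (HRP/TMB read-out) against a recombinant human TNFα standard curve.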

[2] = tested on: MCP-1 production by THP-1 cells; test: MCP-1 production by macrophages; type: cell-based, human; details: Homo sapiens; THP-1 cells stimulated with opsonized zymosan, 24 hours; read-out: IC50 MCP-1 production
In short: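 THP-1 cells (1×10^6/well, 10% FCS) stimulated with 1 mg/ml serum-opsonized zymosan plus compound added from DMSO stocks at 1/1000, 24 h at 37° C. MCP-1 in supernatants quantified by sandwich ELISA (TMB read-out) against a recombinant human MCP-1 standard curve, triplicates, background-subtracted.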

SMILES | IC50 [1] [nM] | IC50 [2] [nM]
CC1=C(O)C(=O)C=C2C1=CC=C1[C@@]2(C)CC[C@@]2(C)[C@@H]3C[C@](C)(C(=O)O)CC[C@]3(C)CC[C@]12C [celastrol] | 87 | 421
COc1c(C)c2c(c(O)c1C/C=C(\C)CCC(=O)O)C(=O)OC2 [mycophenolic acid] | 756 | 764
